Data as given in patent publication US4442087A (priority 1979, dated 1984).

Tests used:
Type in all cases: cell-based
[1] = tested on: Rabbit spleen cells (RK-13 cells used for determination); test: IF induction in vitro, rabbit cells; settings: 1.0 μg/ml, 25 °C 24 h
Procedure: (§1) (A) IF induction and determination of IF activity:
(§2) A spleen cell suspension (10^7 cells/ml) was prepared by the method of hereinafter described Experiment 1 using an Eagle MEM medium (commercial product of Nissui Seiyaku K.K., Tokyo) containing a 10% calf serum (which was replaced by a 10% fetal cattle serum in the cases of human tests), each of which fraction (1 ml) was added with the sample of the active substance at a given concentration and incubated at a given temperature. The cultured liquor was centrifuged to separate a supernatant for use to determine the IF activity. Furthermore, in the cases of human tests, the fresh spleen was collected from a person (adult killed by external wounds) and used for the preparation of a leucocytes suspension on each occasion, and also blood was collected from the vein at the armpit of a person (adult, healthy) from which the serum was separated to use for the preparation of a serum suspension on each occasion. The IF activities were determined by using the cells shown in Table 5 by the method of hereinafterdescribed Experiment 1 and indicated in Table 6.

[2] = tested on: Mouse spleen cells (L cells used for determination); test: IF induction in vitro, mouse cells; settings: 1.0 μg/ml, 37 °C 24 h
Procedure: as §1, §2

[3] = tested on: Human spleen cells (FL cells used for determination); test: IF induction in vitro, human spleen cells; settings: 1.0 μg/ml, 25 °C 24 h
Procedure: as §1, §2

Poly: IC
IF activity in vitro [1]: 220 | IF activity in vitro [2]: 120 | IF activity in vitro [3]: < 5
